Results from PMC8776894 (Communications Biology, 2022).

Tests used:
[1] = test system: 17 phosphorylation sites, prefrontal cortex lysate; assay: Phospho antibody microarray; format: in vivo, mouse
Protocol: Protein phosphorylation detection was performed with a Phospho Explorer Antibody Array (Catalog number AAM-APOSIG-1-8, Ray Biotech, USA), allowing for the examination of 17 phosphorylation sites (three replicates per antibody). Whole-cell lysates from the prefrontal cortex in mice after MCAO/R and VK-treated, and the assay was performed according to the manufacturer’s protocol.

[2] = VK stability in PBS (HPLC); format: physicochemical; conditions: pH 7.4, 37 °C, 750 rpm, 120 min, VK 0.735 mM (Fig. 1 legend 73.5 nM), HPLC-UV 215 nm, peak area relative to 0 min, at least triplicate
Protocol: Proteolytic degradation of peptide-based drugs is generally considered as the main defect to limit systemic therapeutic applications. Therefore, high-performance liquid chromatography (HPLC) was used to assess the stability of VK in PBS or plasma at physiological pH (7.4) and temperature (37 °C). […] For neuropharmacology, crossing the BBB is a remarkable challenge, and VK was labeled with FITC in the N-terminus. FITC-labeled VK was then administered to stroke mice. After 30 min, these mice were imaged by an in vivo imaging system. […] Brains were collected at 0, 30, 60, 90, and 120 min and the distribution of VK was observed. […] To further evaluate whether VK was a cell-penetrating peptide, the oxygen-glucose deprivation/reoxygenation (OGD/R) model simulated I/R […] was established in HT22 hippocampal neuron cells and FITC-labeled VK was incubated for 120 min.
VK in PBS or plasma was detected by quantifying the peak areas relative to the initial peak areas (0 min). All stability tests were performed at least in triplicate.

[3] = Group2(VK 150) VS Group1(VK 300)
[4] = Group2(VK 150) VS Group3(Sham), AveExp.Group3 minus AveExp.Group2
[5] = Group4(Vehicle) VS Group1(VK 300)
[6] = Group4(Vehicle) VS Group2(VK 150)
[7] = Vehicle vs VK headed 150 mg/kg, Regulation up
[8] = Vehicle vs VK headed 300mg/kg, Regulation up

Gly-Arg-Pro-Hyp-Gly-Phe-Ser-Pro-Phe-Arg-Ile-Asp [VK, Vespakinin-M]
AKT(S473) logFC [1, 3]: 0.1681 | ATM(S1981) logFC [1, 3]: 0.4433 | BAD(S112) logFC [1, 3]: 0.1628 | CHK1 (S296) logFC [1, 3]: 0.118 | Casp3(D175) logFC [1, 3]: 0.2616 | Casp7(D198) logFC [1, 3]: 0.356 | Erk1/2(T202) logFC [1, 3]: 0.2636 | IkBa (S32) logFC [1, 3]: -0.1062 | JNK(T183) logFC [1, 3]: 0.1152 | NFKB(S536) logFC [1, 3]: 0.07606 | P27(T198) logFC [1, 3]: -0.02206 | P38(T180/Y182) logFC [1, 3]: 0.08158 | P53(S15) logFC [1, 3]: -0.02082 | SMAD2(S245) logFC [1, 3]: 0.2566 | TAK1(S412) logFC [1, 3]: 0.04657 | eIF2a (S51) logFC [1, 3]: 0.3172 | hsp27(S82) logFC [1, 3]: 0.2446 | AKT(S473) logFC [1, 4]: 0.1633 | ATM(S1981) logFC [1, 4]: 0.1496 | BAD(S112) logFC [1, 4]: 0.121 | CHK1 (S296) logFC [1, 4]: 0.2057 | Casp3(D175) logFC [1, 4]: 0.09625 | Casp7(D198) logFC [1, 4]: 0.03142 | Erk1/2(T202) logFC [1, 4]: 0.1043 | IkBa (S32) logFC [1, 4]: 0.1056 | JNK(T183) logFC [1, 4]: 0.02185 | NFKB(S536) logFC [1, 4]: -0.02812 | P27(T198) logFC [1, 4]: 0.08521 | P38(T180/Y182) logFC [1, 4]: -0.03282 | P53(S15) logFC [1, 4]: 0.03719 | SMAD2(S245) logFC [1, 4]: 0.04639 | TAK1(S412) logFC [1, 4]: 0.09444 | eIF2a (S51) logFC [1, 4]: 0.1069 | hsp27(S82) logFC [1, 4]: 0.06748 | AKT(S473) logFC ([1]; Group3(Sham) VS Group1(VK 300)): 0.3314 | ATM(S1981) logFC ([1]; Group3(Sham) VS Group1(VK 300)): 0.5929 | BAD(S112) logFC ([1]; Group3(Sham) VS Group1(VK 300)): 0.2838 | CHK1 (S296) logFC ([1]; Group3(Sham) VS Group1(VK 300)): 0.3237 | Casp3(D175) logFC ([1]; Group3(Sham) VS Group1(VK 300)): 0.3578 | Casp7(D198) logFC ([1]; Group3(Sham) VS Group1(VK 300)): 0.3874 | Erk1/2(T202) logFC ([1]; Group3(Sham) VS Group1(VK 300)): 0.3679 | IkBa (S32) logFC ([1]; Group3(Sham) VS Group1(VK 300)): -0.0006282 | JNK(T183) logFC ([1]; Group3(Sham) VS Group1(VK 300)): 0.137 | NFKB(S536) logFC ([1]; Group3(Sham) VS Group1(VK 300)): 0.04795 | P27(T198) logFC ([1]; Group3(Sham) VS Group1(VK 300)): 0.06315 | P38(T180/Y182) logFC ([1]; Group3(Sham) VS Group1(VK 300)): 0.04876 | P53(S15) logFC ([1]; Group3(Sham) VS Group1(VK 300)): 0.01637 | SMAD2(S245) logFC ([1]; Group3(Sham) VS Group1(VK 300)): 0.303 | TAK1(S412) logFC ([1]; Group3(Sham) VS Group1(VK 300)): 0.141 | eIF2a (S51) logFC ([1]; Group3(Sham) VS Group1(VK 300)): 0.4241 | hsp27(S82) logFC ([1]; Group3(Sham) VS Group1(VK 300)): 0.3121 | CHK1 (S296) logFC [1, 5]: 0.6052 | Casp7(D198) logFC [1, 5]: 0.6994 | Erk1/2(T202) logFC [1, 5]: 0.4686 | IkBa (S32) logFC [1, 5]: 0.671 | JNK(T183) logFC [1, 5]: 0.4121 | NFKB(S536) logFC [1, 5]: 0.4222 | P38(T180/Y182) logFC [1, 5]: 0.4307 | hsp27(S82) logFC [1, 5]: 0.386 | logFC AKT(S473) [1, 5]: 0.1073 | logFC ATM(S1981) [1, 5]: 0.3928 | logFC BAD(S112) [1, 5]: 0.3454 | logFC Casp3(D175) [1, 5]: 0.3417 | logFC P27(T198) [1, 5]: 0.1337 | logFC P53(S15) [1, 5]: 0.1112 | logFC SMAD2(S245) [1, 5]: 0.1323 | logFC TAK1(S412) [1, 5]: 0.1801 | logFC eIF2a (S51) [1, 5]: 0.3444 | logFC AKT(S473) [1, 6]: -0.06086 | logFC ATM(S1981) [1, 6]: -0.05046 | logFC BAD(S112) [1, 6]: 0.1826 | logFC CHK1 (S296) [1, 6]: 0.4872 | logFC Casp3(D175) [1, 6]: 0.08018 | logFC Casp7(D198) [1, 6]: 0.3435 | logFC Erk1/2(T202) [1, 6]: 0.205 | logFC IkBa (S32) [1, 6]: 0.7772 | logFC JNK(T183) [1, 6]: 0.2969 | logFC NFKB(S536) [1, 6]: 0.3462 | logFC P27(T198) [1, 6]: 0.1557 | logFC P38(T180/Y182) [1, 6]: 0.3491 | logFC P53(S15) [1, 6]: 0.132 | logFC SMAD2(S245) [1, 6]: -0.1242 | logFC TAK1(S412) [1, 6]: 0.1335 | logFC eIF2a (S51) [1, 6]: 0.02722 | logFC hsp27(S82) [1, 6]: 0.1414 | levels of IκBa (S32), CHK1 (S296), NF-κB (S536), p38 (T180/Y182), Casp7 (D198), JNK(T183) vs vehicle ([1]; VK 150 µg/kg, MCAO/R mice): clearly decreased levels | NFκB(S536) AveExp. Group2 ([1]; VK group headed 150 mg/kg): 11 | IκBa (S32) AveExp. Group2 ([1]; VK group headed 150 mg/kg (text 150 µg/kg)): 10.95 | NFκB(S536) AveExp. Group1 ([1]; VK group headed 300mg/kg): 10.93 | IκBa (S32) AveExp. Group1 ([1]; VK group headed 300mg/kg (text 300 µg/kg)): 11.05 | IκBa (S32) logFC ([1]; Vehicle (Group4) vs VK headed 150 mg/kg, Regulation up): 0.7772 | IκBa (S32) logFC ([1]; Vehicle (Group4) vs VK headed 300mg/kg, Regulation up): 0.671 | Casp7(D198) logFC [1, 7]: 0.3435 | JNK(T183) logFC [1, 7]: 0.2969 | NFκB(S536) logFC [1, 7]: 0.3462 | ATM(S1981) logFC [1, 8]: 0.3928 | BAD(S112) logFC [1, 8]: 0.3454 | CHK1 (S296) logFC [1, 8]: 0.6052 | Casp3(D175) logFC [1, 8]: 0.3417 | Casp7(D198) logFC [1, 8]: 0.6994 | Erk1/2(T202) logFC [1, 8]: 0.4686 | JNK(T183) logFC [1, 8]: 0.4121 | NFκB(S536) logFC [1, 8]: 0.4222 | P38(T180/Y182) logFC [1, 8]: 0.4307 | eIF2a (S51) logFC [1, 8]: 0.3444 | hsp27(S82) logFC [1, 8]: 0.386 | degradation rate of VK in PBS [2]: 62.4%
